Measured values published in patent publication US20170112858A1, “Extended Release Aspirin” (New Haven Pharmaceuticals, Inc., priority 2015, published 2017).

What was measured:
Type in all cases: in vivo, human
[1] = Single dose ASA pharmacokinetics in healthy adults (serial blood samples)
Experimental: (§1) Healthy adults were randomized to receive single doses of extended release ASA (“ER ASA”) at a dosage of 20 mg, 40 mg, 81 mg, 162.5 mg ER ASA (Durlaza®; New Haven Pharmaceuticals, Inc., North Haven, Conn.), or 325 mg, or immediate release ASA (“IR ASA”; aspirin powder USP; Letco Medical, Decatur, Ala.) at a dosage of 5 mg, 10 mg, 20 mg, 40 mg or 81 mg. […] For pharmacodynamic assessments, serum 11-dehydro-thromboxane (“TxB2”, a stable metabolite of thromboxane A2) levels were assessed using a validated enzyme immunoassay kit in serial blood samples collected 1 hour before dosing and at 0.5, 1, 2, 4, 8, 16, and 24 hours after drug administration.

serum TxB2 production = assay: Single dose inhibition of serum TxB2 production in healthy adults (enzyme immunoassay); details: highest doses: ER ASA 81, 162.5, 325 mg; IR ASA 40, 81 mg
Experimental: as §1

platelet aggregation = assay: Light transmittance aggregometry (LTA), AA-, collagen-, ADP-induced, in type II diabetes subjects with vascular disease or CVD risk factors; details: trough
Experimental: High platelet reactivity has previously been implicated in incomplete inhibition during therapy with immediate release low-dose aspirin in patients with type II diabetes. The main study consisted of a run-in phase where subjects were administered 81 mg, everyday (“QD”), of immediate release acetylsalicylic acid (“IR ASA”) for 7-28 days. […] For this study the trough level data are from the following timepoints: (1) for 81 mg—the data at Visit 2; […]

endothelial function = assay: Reactive hyperemia index (ENDOPAT pulsatile arterial tonometry)
Experimental: Endothelial function was assessed using the ENDOPAT system ([…] Medical, Israel), a pulsatile arterial tonometry-based diagnostic device, at Visit 2, Visit 3, Visit 5, and Visit 6 predose. The reactive hyperemia index (“RHI”), a measure of endothelial function, and the augmentation index (“AI”), a measure of arterial stiffness, were determined. Endothelial dysfunction is defined as RHI <1.67. Normal arterial stiffness is defined as an AI -30% to -10%, increased arterial stiffness as an AI >-10% to 10%, and abnormal arterial stiffness as an AI >10%. The RHI measures vessel pliability which is a surrogate for nitric oxide production. The production of nitric oxide inhibits platelet aggregation. Thus, determining nitric oxide production following Durlaza® dosing is important to understanding its affect on platelet inhibition.

[2] = test system: High Sensitive C-Reactive Protein (hs-CRP); assay: High Sensitive C-Reactive Protein test (Immulite 2000 Xpi)
Experimental: Subjects were also measured for high sensitive C-reactive protein (“hs-CRP”) levels at Visit 1, Visit 2, Visit 3 pre-dose, Visit 3 at 24 hours, Visit 6 pre-dose and Visit 6 at 24 hours.
High Sensitive C-Reactive Protein (“hs-CRP”) was measured using a Seimens Immulite 2000® Xpi analyzer (Immulite 2000 is a registered trademark of Siemens Healthcare Diagnostic, Inc.), prior to 162.5 mg ER ASA (Durlaza®) dosing at Visit 2 pre-dose, at Visit 3 pre-dose and Visit 3 at 24-hr post-dose for the 162.5 mg ER ASA (Durlaza®) dose, and at Visit 6 pre-dose and Visit 6 at 24-hr post-dose for the 325 mg ER ASA dose.

TxB2 = assay: Excretion of thromboxane metabolite, urine GC/MS (Example 3)
Experimental: (§2) Subjects of Group 1 were randomly administered a placebo, 81 mg IR ASA and 162.5 mg IR ASA. Subjects of Group 2 were randomly administered a placebo, 81 mg ER ASA and 162.5 mg ER ASA (Durlaza®). Each subject was prohibited from taking any aspirin for two weeks prior to being administered the randomly chosen drug daily for 1 week followed by a urine collection 24 hours after dosing. This protocol was repeated two additional times. For each urine collection TxB2 and 2, 3-dinor-6-keto-PGF1α (“prostacyclin”) levels were measured using gas chromatography-mass spectrometry (“GC/MS”). Statistical analysis was done using Wilcoxon rank sum test for continuous variables and the Pearson test for categorical variables.

[3] = test system: 2, 3-dinor-6-keto-PGF1α (prostacyclin); assay: Excretion of prostacyclin metabolite, urine GC/MS (Example 3)
Experimental: as §2

[4] = Visit 2, 81 mg IR QD (vs. Visit 3 pre dose)
[5] = Visit 2, 81 mg IR QD (vs. Visit 6 pre dose)

CC(=O)Oc1ccccc1C(=O)O [IR ASA, acetylsalicylic acid]
time required to reach the maximum concentration of ASA ([1]; all doses, single dose): 1 to 2 h | AUClast of ASA ([1]; single dose 40 mg): 384 ng·h/mL | AUClast of ASA ([1]; single dose 81 mg): 865 ng·h/mL | single dose inhibition of TxB2 production (serum TxB2 production): maintained during a 24-hour period | LTA (%) 2 mM AA (Final), first line so headed (platelet aggregation; [4]): 5 ± 12% | LTA (%) 2 mM AA (Final), second line so headed (platelet aggregation; [4]): 6 ± 13% | LTA (%) 2 mM AA (Final), first line so headed (platelet aggregation; [5]): 3 ± 2% | LTA (%) 2 mM AA (Final), second line so headed (platelet aggregation; [5]): 3 ± 2% | subjects with RHI < 1.67 (n, %) (endothelial function; HPT Group, Visit 5, 81 mg IR ASA QD): 4 (44) n, % | subjects with RHI < 1.67 (n, %) (endothelial function; Visit 2, 81 mg IR ASA QD): 11 (27.5) n, % | subjects with hs-CRP >3 mg/L (n, %) ([2]; V2 pre-dose, 81 mg IR ASA): 23 (57) n, % | patients meeting the criteria for elevated CRP ([2]; during 81 mg IR ASA therapy, total study population): 47% | Bradykinin-stimulated TxB2 levels 4 hours post-dosing, over placebo (TxB2; 81 mg daily): significantly reduced | Basal urinary TxB2 levels 24 hours post-dosing, over placebo (TxB2; 81 mg daily for 1 week): significantly reduced | Bradykinin-stimulated TxB2 levels 4 hours post-dosing, over placebo (TxB2; 162.5 mg daily): significantly reduced | Basal urinary TxB2 levels 24 hours post-dosing, over placebo (TxB2; 162.5 mg daily for 1 week): significantly reduced | dose dependence of the effect on TxB2 synthesis (TxB2; 81 vs 162.5 mg): not seen | Bradykinin-stimulated prostacyclin levels, over placebo ([3]; 81 mg daily): significantly reduced | Bradykinin-stimulated prostacyclin levels, over placebo ([3]; 162.5 mg daily): significantly reduced
